Assay results taken from patent US20050048579A1, “Tertiary structures of ICAM-1/LFA-1 modulators” (priority 2003, published 2005).
Bridge positions count the residues as written; N and C are the ends. Peptide text beside a SMILES is read from it.

Assays:
[1] = biological target: T1, LFA-1 binding to ICAM-1 (JY cells) (Homo sapiens, UniProt P05362); experiment: LFA-1:ICAM-1 dependent JY cell aggregation assay (2 hours); format: cell-based
T1 construct: endogenous in cells; host or cells: JY cells
T1 sequence (P05362 28-532): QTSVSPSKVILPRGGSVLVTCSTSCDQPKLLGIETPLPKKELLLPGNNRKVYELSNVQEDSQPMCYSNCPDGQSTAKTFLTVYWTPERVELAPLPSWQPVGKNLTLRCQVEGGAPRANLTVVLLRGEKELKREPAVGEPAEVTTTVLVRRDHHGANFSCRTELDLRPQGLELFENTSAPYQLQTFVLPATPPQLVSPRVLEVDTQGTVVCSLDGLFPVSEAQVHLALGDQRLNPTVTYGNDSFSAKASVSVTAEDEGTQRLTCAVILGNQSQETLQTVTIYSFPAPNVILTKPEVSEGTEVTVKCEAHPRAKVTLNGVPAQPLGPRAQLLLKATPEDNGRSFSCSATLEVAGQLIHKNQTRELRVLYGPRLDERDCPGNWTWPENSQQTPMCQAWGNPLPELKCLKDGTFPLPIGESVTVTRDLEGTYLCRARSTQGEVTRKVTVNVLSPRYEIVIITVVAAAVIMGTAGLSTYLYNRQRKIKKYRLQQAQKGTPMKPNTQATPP
Description: (§1) Cysteine-constrained peptides, synthesized by Biopeptide (San Diego, Calif., USA), were isolated using high-performance liquid chromatography, and their correct mass was confirmed by mass spectrometry. The peptides were dissolved in 5% dimethylsulfoxide in phosphate-buffered saline (PBS) at concentrations of 10 mm and stored at −80° C. until use. The mAb directed against LFA-1 (TS1/18) was purified from a hybridoma line ([…], Manassas, Va.) as described previously (Oj, V. T. & Herzenberg, T. (1980) Immunoglobulin-producing hybrid celllines. In Selected Methods in Cellular Immunology (Mishell, B. B. & Shiigi, S. M.,eds), H. H. Freeman, New York; Larson, R. S., Brown, D. C. & Sklar, L. A.(1997) Retinoic acid induces aggregation of the acute promyelocytic leukemia cell lineNB-4 by utilization of LFA-1 and ICAM-2.Blood 90, 2747-2756; Rothlein, R. & Springer, T. A. (1986) The requirement for lymphocyte function associated antigen 1 in homotypic leukocyte adhesion stimulated by phorbol ester. J. Exp.Med. 163, 1132-1149).
(§2) JY cells were maintained in RPMI-1640 medium supplemented with 10% fetal bovine serum at 37° C. in an atmosphere containing 5% CO2 in air. The aggregation of JY cells, which is dependent on LFA-1 binding to ICAM-1, was determined as previously reported (Shannon, J. P., Silva, M. V., Brown, D. C. & Larson, R. S. (2001) Novel cyclic peptide inhibits intercellular adhesion molecule-1-mediated cell aggregation. J. Pept. Res. 58, 140-150; Larson, R. S., Brown, D. C. & Sklar, L. A.(1997) Retinoic acid induces aggregation of the acute promyelocytic leukemia cell lineNB-4 by utilization of LFA-1 and ICAM-2.Blood 90, 2747-2756; Rothlein, R. & Springer, T. A. (1986) The requirement for lymphocyte function associated antigen 1 in homotypic leukocyte adhesion stimulated by phorbol ester. J. Exp.Med. 163, 1132-1149). Briefly, JY cells were washed twice with serum-free media and resuspended at a concentration of 4×10^5 cells/mL. Cells were then preincubated with various concentrations of peptides or mAb for 15 minutes at room temperature. A 50 μL aliquot of cells was seeded in each well of a 96-well flat-bottomed microtiterplate followed by the addition of either peptide or mAb to a final volume of 100 μL. Cells were allowed to aggregate at 37° C. in humidified air containing 5% CO2. Within each well, the number of aggregates and the total number of free (single) cells were counted by inverted phase microscopy. Percent aggregation, P, was then determined as follows: P=100(1−Ff/Fi), where Ff (Fi) is the final (initial) number of free cells. Percent aggregation was then used to calculate percent inhibition, I, as follows: […], where Pi (Pc) is the percent aggregation with modulatory peptide (control). The constants for 50% inhibition (IC50) were derived from a linear fit to the percent inhibition at four concentrations (50 μm, 100 μm, 500 μm, and 1 mm) of inhibitory peptide. Each experiment was performed at least three times, with each condition performed in duplicate. The data are reported as the mean values and the SDs of each IC50.

[2] = biological target: ICAM-1/LFA-1 dependent cell aggregation (Homo sapiens, UniProt P05362); conditions: literature reports; cited from earlier work
Sequence of ICAM-1/LFA-1 dependent cell aggregation (P05362 28-532): as above

[3] = tested on: ischemia-reperfusion injury; conditions: in vivo; cited from earlier work
[4] = biological target: T1, LFA-1 binding to ICAM-1 (JY cells); experiment: LFA-1:ICAM-1 dependent cell aggregation assay, slightly modified (360 minute incubations); format: cell-based
Description: as §2
The same general procedure was used as described in Example 1.
The functional activity of each IP02 derivative was measured in a slightly-modified version of the previously described cell aggregation assay (Shannon, J. P., Silva, M. V., Brown, D. C., & Larson, R. S. (2001). Novel cyclic peptide inhibits intercellular adhesion molecule-1-mediated cell aggregation. J. Pept. Res. 58, 140-150; Merchant, S. H., Gurule, D. M., Larson, R. S. (2003). Amelioration of ischemia-reperfusion injury with cyclic peptide blockade of ICAM-1. Am. J. Physiol. Heart Circ. 284,H1260-1268; Larson, R. S., Brown, D. C., and Sklar, L. A. (1997). Retinoic acid induces aggregation of the acute promyelocytic leukemia cell line NB-4 by utilization of LFA-1 and ICAM-2. Blood 90, 2747-2756; Rothlein, R. and Springer, T. A. (1986). The requirement for lymphocyte function-associated antigen 1 in homotypic leukocyte adhesion stimulated by phorbol ester. J. Exp. Med. 163, 1132-1149). Longer incubations (360 minutes) were used here instead of the earlier 120 minute incubations in order to increase the observed differences among peptide antagonists. Of all the amino acid substitutions, replacement of R6 with K, to produce IP02-K6, improved the IC50 the most. […] Alternatively, replacement of L2 or L3 with V (IP02-V2 and IP02-V3) or A8 with L (IP02-L8) abrogated activity, with IC50s exceeding 1,000 μM.

[5] = Solubility of the peptide; format: physicochemical; conditions: NS, not soluble; precluded testing; listed as R4 to A mutation
Description: as §1

IC50 [1] [µM] | SMILES | inhibition of ICAM-1/LFA-1 dependent cell aggregation (in words) [2] | other results
– | CSCC[C@@H]1NC(=O)[C@H](CCCNC(=N)N)NC(=O)[C@H](CC(C)C)NC(=O)[C@H](CC(C)C)NC(=O)[C@@H](N)CSSC[C@@H](C(=O)O)NC(=O)[C@H](C)NC(=O)[C@H](CO)NC(=O)[C@H](CCCNC(=N)N)NC1=O [IP01-A8, CLLRMRSAC] (H-CLLRMRSAC-OH; disulfide 1-9; N-terminus and C-terminus assumed) | enhanced inhibition | bioactivity after alanine substitution (in words) ([1]; listed as I8 to alanine substitution): retained significant bioactivity
– | CC[C@H](C)[C@@H]1NC(=O)[C@H](CO)NC(=O)[C@H](CCCNC(=N)N)NC(=O)[C@H](CCSC)NC(=O)[C@H](CCCNC(=N)N)NC(=O)[C@H](CC(C)C)NC(=O)[C@H](CC(C)C)NC(=O)[C@@H](N)CSSC[C@@H](C(=O)O)NC1=O [IP01, CLLRMRSIC] (H-CLLRMRSIC-OH; disulfide 1-9; N-terminus and C-terminus assumed) | potent in vitro inhibitor | –
– | CSCC[C@@H]1NC(=O)[C@H](CCCNC(=N)N)NC(=O)[C@H](CC(C)C)NC(=O)[C@H](CC(C)C)NC(=O)[C@@H](N)CSSC[C@@H](C(=O)O)NC(=O)[C@H](C)NC(=O)[C@H](CO)NC(=O)[C@H](CCCCN)NC1=O [IP02-K6, CLLRMKSAC] (H-CLLRMKSAC-OH; disulfide 1-9; N-terminus and C-terminus assumed) | more potent inhibitor of ICAM-1 than IP01 | inhibition of ischemia-reperfusion injury (in words) [3]: potent in vivo inhibitor; IC50 fold smaller than lead peptide IP01 [4]: ~6 fold
– | CC[C@H](C)[C@@H]1NC(=O)[C@H](CO)NC(=O)[C@H](CCCNC(=N)N)NC(=O)[C@H](CCSC)NC(=O)[C@H](C)NC(=O)[C@H](CC(C)C)NC(=O)[C@H](CC(C)C)NC(=O)[C@@H](N)CSSC[C@@H](C(=O)O)NC1=O [IP01-A4, CLLAMRSIC] (H-CLLAMRSIC-OH; disulfide 1-9; N-terminus and C-terminus assumed) | – | solubility of the peptide [5]: insoluble
> 1000 | CC[C@H](C)[C@@H]1NC(=O)[C@H](CO)NC(=O)[C@H](CCCNC(=N)N)NC(=O)[C@H](C)NC(=O)[C@H](CCCNC(=N)N)NC(=O)[C@H](CC(C)C)NC(=O)[C@H](CC(C)C)NC(=O)[C@@H](N)CSSC[C@@H](C(=O)O)NC1=O [IP01-A5, CLLRARSIC] (H-CLLRARSIC-OH; disulfide 1-9; N-terminus and C-terminus assumed) | – | –
> 1000 | CC[C@H](C)[C@@H]1NC(=O)[C@H](CO)NC(=O)[C@H](C)NC(=O)[C@H](CCSC)NC(=O)[C@H](CCCNC(=N)N)NC(=O)[C@H](CC(C)C)NC(=O)[C@H](CC(C)C)NC(=O)[C@@H](N)CSSC[C@@H](C(=O)O)NC1=O [IP01-A6, CLLRMASIC] (H-CLLRMASIC-OH; disulfide 1-9; N-terminus and C-terminus assumed) | – | –
